Measurements: PubChem BioAssay (NCI)
“And” between values parts separate entries of the source, which are not always exact repeats. Equal values may be shown once.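 A five-concentration, 48-hour dose response in 96-well plates underlies each endpoint, interpolated linearly between surrounding concentrations. GI50 marks 50% less growth. Definition used: TGI = concentration required for complete inhibition of growth.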 *1 amine or outer side, *2 acyl side, *3 side chain or, on linkers, in order; H or OH if unused. Where a SMILES comes first, the peptide text is derived from it. Bridges are numbered along the chain shown (N, C = ends). Roman numbers before positions name the chains, in order. [ ]: non-standard residue; d: D form. Actinocin(9to1) = Cc1c2oc3c(C)ccc(C(=O)[*:1])c3nc-2c(C(=O)[*:2])c(N)c1=O; NMeF = CN[CH](Cc1ccccc1)C(=O)O; Sar = CNCC(=O)O

Key:
Test in all cases: NCI-60 cell line screen, 48 h
[1] = test system: A498 renal
[2] = test system: CAKI-1 renal
[3] = test system: HOP-62 NSCLC
[4] = test system: HOP-92 NSCLC
[5] = test system: M14 melanoma
[6] = test system: OVCAR-8 ovarian
[7] = test system: RXF 393 renal
[8] = test system: SNB-19 CNS
[9] = test system: SNB-75 CNS
[10] = test system: T-47D breast

Work on Cc1cc(C(=O)c2ccccc2)c(C)c2c1[nH]c1ccc(Cl)cc12 yielded a GI50 [1] of 0.0305 µM, a TGI [1] of 0.282 µM and a GI50 [2] of 0.0521 µM. It also gave a TGI [2] of 6.05 µM, a GI50 [3] of 0.067 µM and a TGI [3] of 23 µM. For the same molecule, the GI50 [4] was 1.71 µM, the TGI [4] was 21.2 µM and the GI50 [5] was 0.0456 µM. For the same molecule, the TGI [5] was greater than 41.7 µM, the GI50 [6] was 0.148 µM and the TGI [6] was greater than 100 µM. The GI50 [7] was 0.0235 µM, the TGI [7] was 0.0771 µM and the GI50 [8] was 0.0541 µM. It also gave a TGI [8] of 35.1 µM, a GI50 [9] of 0.025 µM and a TGI [9] of 3.42 µM. The GI50 [10] was 0.0447 µM and the TGI [10] was greater than 87.2 µM.
Molecule CCCCCCCCCCCCCCCC1=NC(C)(C)CN1C(C)C has a GI50 [1] of 2.41 µM, a TGI [1] of 6.24 µM and a GI50 [2] of 1.13 µM. The TGI [2] was 2.53 µM, the GI50 [3] was 1.63 µM and the TGI [3] was 2.98 µM. It also gave a GI50 [4] of 1.1 µM, a TGI [4] of 3.45 µM and a GI50 [5] of 1.57 µM. The TGI [5] was 2.91 µM, the GI50 [6] was 1.72 µM and the TGI [6] was 3.58 µM. For the same molecule, the GI50 [7] was 1.52 µM, the TGI [7] was 2.96 µM and the GI50 [8] was 2.04 µM. The TGI [8] was 5.02 µM, the GI50 [9] was 1.47 µM and the TGI [9] was 2.94 µM. It also gave a GI50 [10] of 1.93 µM and a TGI [10] of 4.54 µM.
CN(C)CCCn1c(-c2nonc2N)nc2cnccc21 gave a GI50 [1] of 12 µM, a TGI [1] greater than 25 µM and a GI50 [2] greater than 25 µM. It also gave a TGI [2] greater than 25 µM, a GI50 [3] greater than 25 µM and a TGI [3] greater than 25 µM. It also gave a GI50 [4] of 1.96 µM, a TGI [4] greater than 25 µM and a GI50 [5] greater than 25 µM. For the same molecule, the TGI [5] was greater than 25 µM, the GI50 [6] was greater than 25 µM and the TGI [6] was greater than 25 µM. The GI50 [7] was greater than 5.19 µM, the TGI [7] was greater than 25 µM and the GI50 [8] was greater than 25 µM. It also gave a TGI [8] greater than 25 µM, a GI50 [9] of 8.06 µM and a TGI [9] greater than 25 µM. The GI50 [10] was greater than 25 µM and the TGI [10] was greater than 25 µM.
Work on CC1=NN(c2nc(N)nc(/C=C\c3ccc([N+](=O)[O-])s3)n2)C(C)(C)C1 yielded a GI50 [2] greater than 100 µM, a TGI [2] greater than 100 µM and a GI50 [3] greater than 100 µM. For the same molecule, the TGI [3] was greater than 100 µM, the GI50 [4] was greater than 100 µM and the TGI [4] was greater than 100 µM. For the same molecule, the GI50 [5] was greater than 100 µM, the TGI [5] was greater than 100 µM and the GI50 [6] was greater than 100 µM. For the same molecule, the TGI [6] was greater than 100 µM, the GI50 [7] was greater than 100 µM and the TGI [7] was greater than 100 µM. The GI50 [8] was greater than 100 µM, the TGI [8] was greater than 100 µM and the GI50 [9] was 29.9 µM. The TGI [9] was greater than 100 µM, the GI50 [10] was greater than 100 µM and the TGI [10] was greater than 100 µM.
In the case of O=C1C(Cl)=C(Nc2cccc(C(F)(F)F)c2)C(=O)N1Cc1ccc(Cl)cc1, the GI50 [1] is reported as 0.73 µM, the TGI [1] is reported as 15.7 µM and the GI50 [2] is reported as 0.289 µM. The TGI [2] was 16.4 µM, the GI50 [3] was 0.835 µM and the TGI [3] was 17.4 µM. The GI50 [4] was 15 µM, the TGI [4] was 33.1 µM and the GI50 [5] was 1.34 µM. For the same molecule, the TGI [5] was 18.5 µM, the GI50 [6] was 0.699 µM and the TGI [6] was 23.3 µM. The GI50 [8] was 6.37 µM, the TGI [8] was 24.1 µM and the GI50 [9] was 1.07 µM. The TGI [9] was 20 µM, the GI50 [10] was 2.11 µM and the TGI [10] was 30.8 µM.
Work on CS(=O)(=O)N(c1cc(-c2ccc3ncnc(Nc4cccc(Cl)c4)c3c2)cnc1Cl)S(C)(=O)=O yielded a GI50 [1] of 0.0685 µM, a TGI [1] of 0.388 µM and a GI50 [2] of 0.281 µM. It also gave a TGI [2] of 2.08 µM, a GI50 [3] of 0.443 µM and a TGI [3] of 12.8 µM. The GI50 [4] was 0.158 µM, the TGI [4] was 0.891 µM and the GI50 [5] was 0.598 µM. The TGI [5] was 4.4 µM, the GI50 [6] was 1.58 µM and the TGI [6] was greater than 100 µM. The GI50 [7] was 0.231 µM, the TGI [7] was 0.91 µM and the GI50 [8] was 0.936 µM. The TGI [8] was 7.89 µM, the GI50 [9] was 0.0406 µM and the TGI [9] was 0.641 µM. For the same molecule, the GI50 [10] was 0.043 µM and the TGI [10] was 0.618 µM.
In the case of O=C(NC(=S)Nc1cc(Cl)ccc1O)c1cccc(Br)c1, the GI50 [1] is reported as 4.8 µM, the TGI [1] is reported as 51.9 µM and the GI50 [2] is reported as 4.34 µM. It also gave a TGI [2] greater than 100 µM, a GI50 [3] of 7.46 µM and a TGI [3] greater than 100 µM. For the same molecule, the GI50 [4] was 10.5 µM, the TGI [4] was 59.2 µM and the GI50 [5] was 26.3 µM. The TGI [5] was greater than 100 µM, the GI50 [6] was 6.54 µM and the TGI [6] was greater than 100 µM. It also gave a GI50 [7] of 18.7 µM, a TGI [7] of 92.3 µM and a GI50 [8] of 8.78 µM. For the same molecule, the TGI [8] was greater than 100 µM, the GI50 [9] was 11.8 µM and the TGI [9] was 75.8 µM. For the same molecule, the GI50 [10] was 3.71 µM and the TGI [10] was greater than 100 µM.
For COc1c(B(O)O)cc(F)cc1-c1nc2ccc3[nH]ncc3c2c2c1CCCC2, the GI50 [1] was 0.0664 µM, the TGI [1] was 2.52 µM and the GI50 [2] was less than 0.01 µM. It also gave a TGI [2] of 0.134 µM, a GI50 [3] of less than 0.0212 µM and a TGI [3] of 11.5 µM. For the same molecule, the GI50 [4] was less than 0.01 µM, the TGI [4] was 14.4 µM and the GI50 [5] was 2.64 µM. It also gave a TGI [5] of 5.44 µM, a GI50 [6] of 1.55 µM and a TGI [6] of 17.7 µM. It also gave a GI50 [7] of less than 0.01 µM, a TGI [7] of 0.294 µM and a GI50 [8] of 1.73 µM. It also gave a TGI [8] of 13 µM, a GI50 [9] of less than 0.01 µM and a TGI [9] of 0.0607 µM. The GI50 [10] was 2.62 µM and the TGI [10] was 8.99 µM.
CC(O)c1cc(C(=O)N[C@@H](C)Cn2ccc(-c3ccc(C#N)c(Cl)c3)n2)n[nH]1 (stereo partly specified) showed a GI50 [1] of 3.51 µM, a TGI [1] of 55.9 µM and a GI50 [2] of 44.9 µM. For the same molecule, the TGI [2] was greater than 100 µM, the GI50 [3] was greater than 100 µM and the TGI [3] was greater than 100 µM. It also gave a GI50 [4] of 26.5 µM, a TGI [4] greater than 100 µM and a GI50 [5] of 32.8 µM. The TGI [5] was greater than 100 µM, the GI50 [6] was 28.7 µM and the TGI [6] was greater than 100 µM. It also gave a GI50 [7] greater than 100 µM, a TGI [7] greater than 100 µM and a GI50 [8] greater than 100 µM. It also gave a TGI [8] greater than 100 µM, a GI50 [9] of 52.4 µM and a TGI [9] greater than 100 µM. For the same molecule, the GI50 [10] was 13.2 µM and the TGI [10] was 87.8 µM.
With Cn1cc(C2=C(N3CCOCC3)C(=O)NC2=O)c2ccccc21 the GI50 [1] was greater than 25 µM, the TGI [1] was greater than 25 µM and the GI50 [2] was greater than 25 µM. For the same molecule, the TGI [2] was greater than 25 µM, the GI50 [3] was greater than 25 µM and the TGI [3] was greater than 25 µM. The GI50 [4] was 14.7 µM, the TGI [4] was greater than 25 µM and the GI50 [5] was greater than 25 µM. The TGI [5] was greater than 25 µM, the GI50 [6] was greater than 25 µM and the TGI [6] was greater than 25 µM. It also gave a GI50 [7] greater than 25 µM, a TGI [7] greater than 25 µM and a GI50 [8] greater than 25 µM. The TGI [8] was greater than 25 µM, the GI50 [9] was greater than 25 µM and the TGI [9] was greater than 25 µM. The GI50 [10] was greater than 25 µM and the TGI [10] was greater than 25 µM.
For Cc1c2oc3c(C)ccc(C(=O)NC4C(=O)NC(C(C)C)C(=O)N5CCCC5C(=O)N(C)CC(=O)N(C)C(Cc5ccccc5)C(=O)OC4C)c3nc-2c(C(=O)NC2C(=O)NC(C(C)C)C(=O)N3CCCC3C(=O)N(C)CC(=O)N(C)C(Cc3ccccc3)C(=O)OC2C)c(N)c1=O (stereo unspecified) (I: TVP[Sar][NMeF] / II: TVP[Sar][NMeF]; ester I:1-I:C, II:1-II:C; linker I:N-II:N via Actinocin(9to1); configuration not given here), the TGI [1] was < 0.01 µM and 0.0378 µM, the TGI [2] was 2.79 µM and > 0.223 µM and the TGI [3] was < 0.0134 µM and 0.0328 µM. For the same molecule, the TGI [4] was < 0.0476 µM and 0.0606 µM, the TGI [5] was 0.126 µM and the TGI [6] was 0.132 µM and 0.054 µM. The TGI [7] was < 0.01 µM and 0.0305 µM, the GI50 [8] was < 0.01 µM and 0.00378 µM and the TGI [8] was 0.118 µM and > 0.381 µM. For the same molecule, the TGI [9] was 0.0645 µM and the TGI [10] was < 0.01 µM and 0.0419 µM.
In the case of Cc1coc2c1C(OC(=O)C(C)C)C1(C)C(C)CCC(O)C1C2=O (stereo unspecified), the TGI [1] is reported as greater than 100 µM, the TGI [2] is reported as greater than 100 µM and the TGI [3] is reported as greater than 100 µM. It also gave a TGI [4] greater than 100 µM, a TGI [5] greater than 100 µM and a TGI [6] greater than 100 µM. It also gave a TGI [7] greater than 100 µM, a TGI [9] greater than 100 µM and a TGI [10] greater than 100 µM.
C[C@@H]1COCCN1c1cc(C2(O)C[C@H]3CC[C@@H](C2)O3)c2cnn(-c3ccn[nH]3)c2n1 (stereo partly specified) showed a GI50 [1] of 0.0221 µM, a TGI [1] of 0.13 µM and a GI50 [2] of 0.0685 µM. The TGI [2] was 0.627 µM, the GI50 [3] was 0.0786 µM and the TGI [3] was 1.41 µM. The GI50 [4] was 0.114 µM, the TGI [4] was 0.879 µM and the GI50 [5] was 0.0383 µM. For the same molecule, the TGI [5] was 0.785 µM, the GI50 [6] was 0.145 µM and the TGI [6] was 1.56 µM. The GI50 [7] was less than 0.0161 µM, the TGI [7] was 0.0581 µM and the GI50 [8] was 0.166 µM. For the same molecule, the TGI [8] was 1.74 µM, the GI50 [9] was 0.043 µM and the TGI [9] was 0.411 µM. For the same molecule, the GI50 [10] was 0.122 µM and the TGI [10] was 0.734 µM.
